Results from patent publication US20150030593A1, “COMPOSITIONS OF PENETRATION-ENHANCED TARGETING PROTEINS AND METHODS OF USE” (PERMEON BIOLOGICS, INC., priority 2013, published 2015).

Experiments:
Type in all cases: cell-based
[1] = test system: MDA-MB-468 (Her2^Low) cells; assay: Flow cytometry detection of internalized GFP protein (Example 4); conditions: 1 μM, 2 hours, serum free media
Experimental: These two types of cells express different levels of Her2 protein (FIG. 8). […] MDA-MB-468 cells express very low levels of Her2 (referred to as Her2^Low) while AU565 cells express high levels of Her2 (referred to as Her2^high).
The media were replaced with serum free media containing 1 μM of a protein listed below, and incubated for 2 hours. Cells were washed 3×PBS, trypsinized, fixed with 4% PFA, washed with PBS and then analyzed by flow cytometry with detection of GFP.
Results: Flow cytometry analysis is indicative of the amount of protein internalized into the cells. FIGS. 9A and 9B show the flow cytometry data obtained for different tested samples at various conditions. The median fluorescence values obtained from the flow cytometry peak minus the median fluorescence values of untreated cells (background fluorescence) are shown in FIGS. 10A and 10B. See also Table 7. The first column indicates identifies the GFP-component of the construct used for the particular sample treatment. The second and third columns represents fluorescence in MDA-MB-468 cells following treatment with each of the GFP proteins alone (second column; examples of use of CPMs alone) or with each of the GFP-C6.5 fusion proteins (third column; examples of fusion proteins comprising a target-binding region and a CPM region). The fourth and fifth column fluorescence in AU565 cells following treatment with each of the GFP proteins alone (fourth column; examples of use of CPMs alone) or with each of the GFP-C6.5 fusion proteins (fifth column; examples of fusion proteins comprising a target-binding region and a CPM region).

[2] = test system: MDA-MB-468 (Her2^Low) cells; assay: Flow cytometry uptake in mixed cell population, concentration series (Example 5); conditions: 2 h; for Median Fluorescence Values, Her2− GFP-C6.5: second set; for Median Fluorescence Values, MDA-MB-468 cells (Her2−) GFP-C6.5 / Median Fluorescence Values, MDA-MB-468 cells (Her2−) C6.5-GFP: first set
Experimental: (§1) The media were replaced with serum free media containing indicated concentrations of protein listed below and incubated for 2 h. Cells were washed 3×PBS, trypsinized, fixed with 4% PFA, stained with Her2 Ab-APC for 0.5 hour, washed with PBS and then analyzed by flow cytometry with detection of GFP.
(§2) The tested proteins of the first and second sets of experiments were applied to the mixed cell population for two hours.
(§3) The above data were also plotted in FIGS. 13A-13H to show the median fluorescence value minus background fluorescence of untreated cells (background adjusted fluorescence) (Y-axis) as a function of concentration (X-axis) for each of the tested proteins in this Example. Cellular uptake of the proteins was measured by GFP fluorescence. Her2 expression level was measured by using a Her2 antibody conjugated with allophycocyanin (APC). Gating was applied to the flow cytometry data to identify Her2^1′ versus Her2^high populations. […] The Her2^low profiles (diamond) are indicative of the profile of charged GFP alone. The Her2^high profiles (square) are indicative of the profile of the charged GFP in combination with the target-binding region—C6.5 scFv. The data of sfGFP-C6.5 on the Her2^high cells reflects the profile of the target-binding region (C6.5) by itself.

[3] = test system: MDA-MB-468 (Her2^Low) cells; assay: Flow cytometry uptake in mixed cell population, time course (Example 6); conditions: 0.1 μM
Experimental: (§4) The media were replaced with serum free media containing 0.1 μM of protein listed below and incubated for 10 minutes, 30 minutes or 4 hours. Cells were washed 3×PBS, trypsinized, stained with Her2 Antibody-APC for 0.5 hours, washed with PBS and then analyzed by flow cytometry with detection of GFP.

AU565 (Her2^high) cells [4] = assay: Flow cytometry detection of internalized GFP protein (Example 4); conditions: 1 μM, 2 hours, serum free media
AU565 (Her2^high) cells [5] = assay: Flow cytometry uptake in mixed cell population, concentration series (Example 5); conditions: 2 h, first set
Experimental: as §1, §2, §3

AU565 (Her2^high) cells [6] = assay: Flow cytometry uptake in mixed cell population, time course (Example 6); conditions: 0.1 μM
Experimental: as §4

SKOV-3 cells (Her2^high) = assay: Cellular uptake by fluorescence microscopy; conditions: 1 μM, 1 hour
Experimental: These images were taken to assess cellular uptake of these GFP-containing proteins by fluorescence microscopy. The images shown are an overlay of phase contrast and GFP fluorescence images.
In addition, SKOV-3 cells (Her2^high) were treated with 1 μM of proteins for 1 hour, and then images were taken to assess cellular uptake of GFP proteins by fluorescence microscopy (FIG. 11A).

## sfGFP-C6.5: fusion of superfolder GFP, (S4G)6 spacer, C6.5 anti-Her2 scFv, His6
[1]
  median fluorescence values, MDA-MB-468 (Her2^Low) GFP-C6.5: 5,632
[2]; 0.03 uM
  Median Fluorescence Values, Her2− GFP-C6.5: 4,460
[2]; 0.1 uM
  Median Fluorescence Values, Her2− GFP-C6.5: 4,824
[2]; 0.3 uM
  Median Fluorescence Values, Her2− GFP-C6.5: 4,947
[3]; 10 min
  cellular uptake (flow cytometry with detection of GFP), Her2− GFP-C6.5: 4,081
[3]; 30 min
  cellular uptake (flow cytometry with detection of GFP), Her2− GFP-C6.5: 3,986
[3]; 4 h
  cellular uptake (flow cytometry with detection of GFP), Her2− GFP-C6.5: 4,704

## +15GFP-C6.5: fusion of +15GFP, (S4G)6 spacer, C6.5 scFv, His6
[1]
  median fluorescence values, MDA-MB-468 (Her2^Low) GFP-C6.5: 313,629
AU565 (Her2^high) cells [4]
  median fluorescence values, AU565 (Her2^high) GFP-C6.5: 413,838
AU565 (Her2^high) cells [5]; 0.03 uM
  Median Fluorescence Values, AUS65 cells (Her2+) GFP-C6.5: 37,663
AU565 (Her2^high) cells [5]; 0.1 uM
  Median Fluorescence Values, AUS65 cells (Her2+) GFP-C6.5: 74,673
AU565 (Her2^high) cells [5]; 0.3 uM
  Median Fluorescence Values, AUS65 cells (Her2+) GFP-C6.5: 128,374
AU565 (Her2^high) cells [5]; 1 uM
  Median Fluorescence Values, AUS65 cells (Her2+) GFP-C6.5: 180,065
[2]; 0.03 uM
  Median Fluorescence Values, MDA-MB-468 cells (Her2−) GFP-C6.5: 13,012
[2]; 0.1 uM
  Median Fluorescence Values, MDA-MB-468 cells (Her2−) GFP-C6.5: 36,343
[2]; 0.3 uM
  Median Fluorescence Values, MDA-MB-468 cells (Her2−) GFP-C6.5: 76,116
[2]; 1 uM
  Median Fluorescence Values, MDA-MB-468 cells (Her2−) GFP-C6.5: 155,734
AU565 (Her2^high) cells [6]; 10 min
  cellular uptake (flow cytometry with detection of GFP), Her2+ GFP-C6.5: 18,606
AU565 (Her2^high) cells [6]; 30 min
  cellular uptake (flow cytometry with detection of GFP), Her2+ GFP-C6.5: 35,981
AU565 (Her2^high) cells [6]; 4 h
  cellular uptake (flow cytometry with detection of GFP), Her2+ GFP-C6.5: 148,261
[3]; 10 min
  cellular uptake (flow cytometry with detection of GFP), Her2− GFP-C6.5: 10,665
[3]; 30 min
  cellular uptake (flow cytometry with detection of GFP), Her2− GFP-C6.5: 22,262
[3]; 4 h
  cellular uptake (flow cytometry with detection of GFP), Her2− GFP-C6.5: 144,923

## C6.5-+15GFP: fusion of N-terminal C6.5 scFv, (S4G)6 spacer, +15GFP, His6
[1]
  median fluorescence values, MDA-MB-468 (Her2^Low) GFP-C6.5: 767,627
AU565 (Her2^high) cells [4]
  median fluorescence values, AU565 (Her2^high) GFP-C6.5: 2,170,916
SKOV-3 cells (Her2^high)
  cellular uptake by fluorescence microscopy: internalized efficiently in the cells
AU565 (Her2^high) cells [5]; 0.03 uM
  Median Fluorescence Values, AUS65 cells (Her2+) C6.5-GFP: 75,821
AU565 (Her2^high) cells [5]; 0.1 uM
  Median Fluorescence Values, AUS65 cells (Her2+) C6.5-GFP: 162,337
AU565 (Her2^high) cells [5]; 0.3 uM
  Median Fluorescence Values, AUS65 cells (Her2+) C6.5-GFP: 305,944
AU565 (Her2^high) cells [5]; 1 uM
  Median Fluorescence Values, AUS65 cells (Her2+) C6.5-GFP: 822,351
[2]; 0.03 uM
  Median Fluorescence Values, MDA-MB-468 cells (Her2−) C6.5-GFP: 13,355
[2]; 0.1 uM
  Median Fluorescence Values, MDA-MB-468 cells (Her2−) C6.5-GFP: 36,070
[2]; 0.3 uM
  Median Fluorescence Values, MDA-MB-468 cells (Her2−) C6.5-GFP: 82,571
[2]; 1 uM
  Median Fluorescence Values, MDA-MB-468 cells (Her2−) C6.5-GFP: 306,260
AU565 (Her2^high) cells [6]; 10 min
  cellular uptake (flow cytometry with detection of GFP), Her2+ C6.5-GFP: 37,044
AU565 (Her2^high) cells [6]; 30 min
  cellular uptake (flow cytometry with detection of GFP), Her2+ C6.5-GFP: 61,007
AU565 (Her2^high) cells [6]; 4 h
  cellular uptake (flow cytometry with detection of GFP), Her2+ C6.5-GFP: 184,844
[3]; 10 min
  cellular uptake (flow cytometry with detection of GFP), Her2− C6.5-GFP: 13,517
[3]; 30 min
  cellular uptake (flow cytometry with detection of GFP), Her2− C6.5-GFP: 17,194
[3]; 4 h
  cellular uptake (flow cytometry with detection of GFP), Her2− C6.5-GFP: 96,599

B1: +2GFP-C6.5: +2GFP fused to C6.5 scFv; variant a or b not stated (protein)
scFv: QVQLLQSGAELKKPGESLKISCKGSGYSFTSYWIAWVRQMPGKGLEYMGLIYPGDSDTKYSPSFQGQVTISVDKSVSTAYLQWSSLKPSDSAVYFCARHDVGYCSSSNCAKWPEYFQHWGQGTLVTVSSGGGGSGGGGSGGGGSQSVLTQPPSVSAAPGQKVTISCSGSSSNIGNNYVSWYQQLPGTAPKLLIYGHTNRPAGVPDRFSGSKSGTSASLAISGFRSEDEADYYCAAWDDSLSGWVFGGGTKLTVLGGHGHHHHHH
modifications: left off: large carriers; small tags and cut ends
SKOV-3 cells (Her2^high)
  cellular uptake by fluorescence microscopy: bound to SKOV-3 cells through Her2 but did not internalize in the cells
